Source: US11324717B2, “Microbial carotenoids affecting gut microbial composition” (Microbial Research Management Health NV, priority 2016, dated 2022)

Key:
[1] = tested on: Caco-2/THP1XB co-cultures; test: Gut barrier function: TEER in Caco-2/THP1XB co-cultures (transwell); assay type: cell-based; settings: 18 h after treatment of Caco-2/THP1XB co-cultures
From the text: The effect on the host of the carotenoids from PD01 (derived from either vegetative cells or spores) on gut barrier function, was studied in Caco-2/THP1XB co-cultures, according to methods described in Possemiers et al. (2013, J Agric Food Chem 61). Endpoint of the measurement was a change from control in the transepithelial electrical resistance (TEER) in a transwell setup.

gut microbiota = test: Gut microbiome composition (fecal DGGE cluster analysis) in rats on high-fat diet; assay type: in vivo, Sprague-Dawley rats; settings: daily oral gavage in peanut oil for 8 weeks, carotenoids 10-50 pg/d, lutein 25 μg/d, vs HF controls
From the text: To evaluate the effect of carotenoids from PD01 on gut microbiome composition in vivo, male Sprague-Dawley rats of 90 days of age were daily dosed for 8 weeks with carotenoids from PD01, either as carotenoid extract or as carotenoids contained in spores or vegetative cells. The experiment consisted of administration of a high-fat (HF) diet to the animals, which mimics a standardized western diet and is associated with the development of metabolic syndrome within 8 weeks of administration. In addition to a HF control group, separate groups of animals received the HF diet in combination with one of the carotenoid formulations from PD01. To do this, the carotenoid formulations were suspended in peanut oil and given by oral gavage to the rats in addition to the HF diet. The corresponding daily dose of carotenoids was in the range of […]. A control group receiving a standard low-fat (LF) diet was included to allow assessment of the specific effect of the HF diet on the gut microbiome composition. Additionally, one extra HF group was included, receiving the plant-derived carotenoid lutein, in the same amount as the bacterial carotenoids (i.e. 25 μg/d). This allows comparison of the effect of bacterial vs. plant-derived carotenoids on the gut microbiome composition. To monitor the effects of the different formulations on the gut microbiota, DGGE profiles were prepared. […]

Row | Structure (SMILES) | transepithelial electrical resistance (TEER), change from control [1] | gut microbiome composition (DGGE cluster analysis of fecal samples) (gut microbiota)
1 | Cc1c(C)c2c(c(C)c1O)CC[C@@](C)(CCC[C@H](C)CCC[C@H](C)CCCC(C)C)O2 [α-tocopherol] | did not induce protection | 
2 | CC1=C[C@H](O)CC(C)(C)[C@H]1/C=C/C(C)=C/C=C/C(C)=C/C=C/C=C(C)/C=C/C=C(C)/C=C/C1=C(C)C[C@@H](O)CC1(C)C [lutein] |  | clustered together with those of the HF controls
